Data taken from patent US20220127682A1, “SELECTION AND TREATMENT OF CANCER WITH COMBINATION THERAPIES” (Massachusetts Institute of Technology, priority 2020, published 2022).
Entries after “also recorded” stand apart in the source; their conditions may differ. Where two headings read alike, the source gives them in different places.

How the values were obtained:
[1] = test system: several tumor cell lines, including those that express MDR1; settings: including lines that express multidrug-resistant protein 1 (MDR1); cited from earlier work
PLK1 = PLK1 (Homo sapiens, UniProt P53350); settings: cited from earlier work
PLK1, sequence (P53350 whole entry): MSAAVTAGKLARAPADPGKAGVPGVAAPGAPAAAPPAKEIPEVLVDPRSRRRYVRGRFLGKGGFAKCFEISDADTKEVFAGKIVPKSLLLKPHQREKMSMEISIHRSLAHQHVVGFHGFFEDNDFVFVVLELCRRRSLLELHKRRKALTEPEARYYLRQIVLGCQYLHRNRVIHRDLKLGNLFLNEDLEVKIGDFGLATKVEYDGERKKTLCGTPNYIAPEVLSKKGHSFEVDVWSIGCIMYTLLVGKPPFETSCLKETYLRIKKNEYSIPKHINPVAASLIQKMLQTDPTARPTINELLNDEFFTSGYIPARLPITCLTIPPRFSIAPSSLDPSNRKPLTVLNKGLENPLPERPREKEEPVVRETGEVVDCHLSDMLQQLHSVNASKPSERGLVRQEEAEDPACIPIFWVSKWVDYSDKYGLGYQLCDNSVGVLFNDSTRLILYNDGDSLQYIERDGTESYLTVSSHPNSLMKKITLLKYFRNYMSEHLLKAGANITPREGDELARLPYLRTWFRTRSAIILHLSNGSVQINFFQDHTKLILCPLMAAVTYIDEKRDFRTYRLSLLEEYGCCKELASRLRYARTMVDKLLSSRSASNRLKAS

[2] = test system: breast cancer cell MDA-MB-468; settings: read-out: anti-proliferative IC50; cited from earlier work
[3] = test system: lung cancer cell line H82; settings: read-out: anti-proliferative IC50; cited from earlier work
skin cancer cell A375 = settings: read-out: anti-proliferative IC50; cited from earlier work
prostate cancer cell PC3 = settings: read-out: anti-proliferative IC50; cited from earlier work
[4] = test system: colorectal cancer cell HT-29; settings: read-out: anti-proliferative IC50; cited from earlier work
[5] = test system: HT-29 human colorectal tumors; settings: HT-29 tumors in nude mouse, cited from earlier work
xenograft tumor models = settings: under proper dose scheduling; cited from earlier work
[6] = test system: C4-2 castrate resistant prostate cancer cells; experiment: Cell viability (CellTiter-Glo, 72 h) of drug combinations vs Bliss expected; type: cell-based; settings: for tumor cell killing of PLK inhibitor combined with abiraterone, vs expected additive: C4-2 CRPC cells, 72 hours, Bliss independence
[7] = cited from earlier work
[8] = cited from earlier work; remark: listed apart in the source
[9] = test system: C4-2 CRPC cells expressing histone H2B-mCherry and mEmerald-tubulin; experiment: Time-lapse live-cell microscopy and spindle orientation analysis; type: cell-based; settings: for frequency of division not parallel to the growth surface: live-cell microscopy; for spindle orientation / spindle rotation during mitosis: net angular displacement and cumulative angular distance
Description: C4-2 CRPC cells expressing histone H2B-mCherry and mEmerald-tubulin. were plated in 12-well plates in phenol red free media, the following day drugs were added as indicated and the cells were imaged on a EVOS™ FL Auto Cell Imaging System equipped with an onstage incubator to maintain 37° C., adequate humidity, and 5% CO2. Images were acquired at 15-minute intervals for 72 hours using a 20× objective lens. For the rotation analysis, the angle of the spindles major axis was tracked starting from when it was first apparent, prometaphase, until telophase. The net angular displacement is the total change in angle of the spindle during mitosis from start until finish and is the absolute value of the sum of all stepwise rotations. The cumulative angular distance is the total amount of rotation regardless of direction that occurred during mitosis and is the sum of the absolute value of all rotations.

C4-2 CRPC cells = experiment: Identification of mitotic (pHH3) and apoptotic (cleaved caspase-3) cells by flow cytometry; type: cell-based; settings: drug added to onvansertib
Description: C4-2 CRPC cells were plated in 6-well plates at a density of 300,000 cells per well and a total volume of 3 mls. The following day the indicated drugs were diluted in the appropriate growth media while maintaining a constant final concentration of DMSO and added to the wells. After the indicated amount of time cells were harvested by trypsinization. The media, trypsin and PBS wash were collected together to avoid loss of loosely attached or detached cells. Cells were fixed in 4% formaldehyde in PBS for 15 minutes, washed with PBS containing 1% bovine serum albumin (PBS-BSA), and then stored in methanol at −20° C. overnight. Cells were then washed twice in PBS-BSA 0.1% Tween-20, incubated with primary antibodies overnight at 4° C., washed with PBS-BSA 0.1% Tween-20 and incubated for 1 hour with fluorescent-dye conjugated secondary antibodies (diluted 1:200, Alexa Fluor, Molecular Probes) at room temperature for 1 hour. Primary antibodies included anti-phospho-serine 10 histone H3 (clone 3H10, Millipore) and anti-active caspase-3 (clone C92-605, BD Pharmingen). The fixed cells were then washed with PBS-BSA 0.1% Tween-20 and resuspended in PBS containing 1 μg/ml 4,6-diamidino-2-phenylindole (DAPI, Molecular Probes) to stain DNA and analyzed using a BD™ LSRII flow cytometer (Becton Dickinson) and the FlowJo™ software package.

cell mitosis = settings: read-out: EC50, inhibition of cell mitosis; cited from earlier work
[10] = test system: Cdc25C-T96 phosphorylation; settings: read-out: EC50, Cdc25C-T96 phosphorylation; cited from earlier work
[11] = preclinical, cited from earlier work
[12] = doses of 24 to 48 mg/m^2 for 5 consecutive days every 4 weeks; cited from earlier work
[13] = cited from earlier work; remark: listed apart in the source
BT20 cells xenograft = settings: 200 mg/kg; cited from earlier work
[14] = test system: Bel-7402, MCF-7, and MIA-PaCa cells xenografts; settings: 250 mg/kg; Bel-7402, MCF-7, MIA-PaCa xenografts; cited from earlier work
[15] = target: several tyrosine kinases and cyclin-dependent kinase 1 (Cdk1); settings: cited from earlier work
[16] = cited from earlier work; remark: listed apart in the source
[17] = test system: tumor cells and normal cells; settings: cited from earlier work
[18] = test system: OAW28 ovarian cancer cells; experiment: Cell viability (CellTiter-Glo, 72 h) of drug combinations vs Bliss expected; type: cell-based; settings: onvansertib 15 nM plus abiraterone
[19] = test system: OCI-AML-3 acute myeloid leukemia cells; experiment: as above; type: cell-based; settings: onvansertib 22.2 nM plus abiraterone
[20] = test system: PSN-1 pancreatic cancer cells; experiment: as above; type: cell-based; settings: onvansertib 22.2 nM plus abiraterone
[21] = test system: LNCaP androgen-dependent prostate cancer cells; experiment: as above; type: cell-based; settings: Bliss independence
[22] = test system: Panc 10.05 pancreatic cancer cells; experiment: as above; type: cell-based; settings: onvansertib 33.3 nM plus abiraterone
[23] = test system: MV-4-11 acute myeloid leukemia cells; experiment: as above; type: cell-based; settings: onvansertib 22.2 nM plus abiraterone
[24] = test system: more than 90 cell lines (multiple cancer types); experiment: Combinatorial drug screening of more than 90 cell lines for more than additive effect; type: cell-based; settings: onvansertib and abiraterone; more than 90 cell lines screened; data not shown
[25] = test system: large number of cell lines, solid and hematological tumors; settings: cited from earlier work
[26] = advanced solid tumors; cited from earlier work
[27] = test system: panel of >50 other kinases; settings: concentrations up to 10 μM; in vitro; cited from earlier work
[28] = test system: HCT116, NCI-H460, and taxane-resistant CXB1 colon carcinoma xenografts; settings: mouse model; ~25 mg/kg/day; cited from earlier work
[29] = cited from earlier work; remark: listed apart in the source
mouse xenograft models = settings: 10 mg/kg and 20 mg/kg on days 1 and 28; cited from earlier work
[30] = test system: various human tumor cell lines; settings: cited from earlier work

Structure (SMILES): COc1cc(C(=O)NC2CCN(C)CC2)c(F)cc1Nc1ncc2c(n1)N(C1CCCC1)CC(F)(F)C(=O)N2C [TAK-960]
- activity in tumor cell lines [1]: shown activity

Structure (SMILES): COc1cc(C(=O)NC2CCN(C)CC2)ccc1NC1NCC2C(N1)N(C1CCCC1)CC(F)(F)C(=O)N2C (stereo not shown) [RO3280]
- IC50 (PLK1): 3 nM
- IC50 [2]: 19 nM
- IC50 [3]: 5 nM
- IC50 (skin cancer cell A375): 70 nM
- IC50 (prostate cancer cell PC3): 12 nM
- IC50 [4]: 10 nM
- antitumor activity ([5]; dosed more frequently): complete tumor regression
- tumor growth inhibition ([5]; once weekly at 40 mg/kg): 72%

Structure (SMILES): C[C@@H](Oc1cc(-n2cnc3ccc(CN4CCN(C)CC4)cc32)sc1C(N)=O)c1ccccc1C(F)(F)F [GSK461364]
- effect in xenograft tumor models (xenograft tumor models): tumor regression
- tumor cell killing of PLK inhibitor combined with abiraterone, vs expected additive [6]: more than additive
- DLTs ([7]; i.v., schedules A and B, 28-day cycle): grade 4 neutropenia, sepsis, and pulmonary embolism
- incidence of venous thrombotic emboli (VTE) ([7]; in vivo): 20%
- final recommended phase II dose ([7]; intravenously, schedule A (days 1, 8, and 15)): 225 mg

Structure (SMILES): CC(=O)O[C@H]1CC[C@@]2(C)C(=CC[C@@H]3[C@@H]2CC[C@]2(C)C(c4cccnc4)=CC[C@@H]32)C1 [Abiraterone acetate, abiraterone acetate]
- solubility in water [8]: practically insoluble

Structure (SMILES): CNC(=O)c1ccc(N2C(=S)N(c3ccc(C#N)c(C(F)(F)F)c3)C(=O)C2(C)C)cc1F [enzalutamide]
- more than additive effect with PLK1 inhibitors ([6]; C4-2 cells, enzalutamide combined with onvansertib or BI2536): not observed
- frequency of division not parallel to the growth surface [9]: did not result in these phenotypes
- spindle orientation / spindle rotation during mitosis [9]: did not result in these phenotypes
- effect on mitotic arrest (pHH3 positive cells) caused by PLK1 inhibitor onvansertib (C4-2 CRPC cells): does not enhance the mitotic arrest

Structure (SMILES): Cc1ncc(CCCN(C)C)cc1Nc1ncc2c(n1)-c1ccc(C(F)(F)F)cc1NC(=S)C2 [MLN0905]
- EC50 (cell mitosis): 9 nM
- EC50 [10]: 29 nM
- maximum tolerated dose ([11]; QD (daily) schedule): 6.25 mg/kg
- maximum tolerated dose ([11]; QD×3/wk (3-days on/4-days off) schedule): 14.5 mg/kg

Structure (SMILES): COc1ccc(S(=O)(=O)N(C(C)=O)c2ccccc2/C=C/c2cc[n+]([O-])cc2)cc1 [HMN-214]
- DLTs [12]: prolonged neutropenia, febrile neutropenia, neutropenic sepsis, electrolyte disturbance, neuropathy, and myalgia
- dose-limiting toxicities ([13]; at 9.9 mg/m^2/d): severe myalgia/bone pain syndrome and hyperglycemia
- maximum tolerated dose and recommended dose ([13]; continuous 21-day dosing schedule every 28 days): 8.0 mg/m^2/d

Structure (SMILES): COc1cc(OC)c(/C=C/S(=O)(=O)Cc2ccc(OC)c(NCC(=O)[O-])c2)c(OC)c1.[Na+] [ON 01910, rigosertib]
- tumor growth (BT20 cells xenograft): inhibition of tumor growth
- tumor growth [14]: inhibited tumor growth
- IC50 [15]: 18 to 260 nM
- DLT ([16]; at the MTD): Grade 3 abdominal pain
- MTD ([16]; i.v., days 1, 4, 8, 11, 15, and 18 in 28-day cycles): 3,120 mg

Structure (SMILES): CN1CCN(c2ccc(OC(F)(F)F)c(Nc3ncc4c(n3)-c3c(c(C(N)=O)nn3CCO)CC4)c2)CC1 [onvansertib]
- sensitivity of tumor cells to induced cell death relative to normal cells [17]: 10 fold
- response to the combination of abiraterone and PLK1 inhibitor vs expected additive [18]: do not have a greater than additive response
- tumor cell killing of PLK inhibitor combined with abiraterone, vs expected additive [6]: more than additive
- response to the combination of abiraterone and PLK1 inhibitor vs expected additive [19]: do not have a greater than additive response
- response to the combination of abiraterone and PLK1 inhibitor vs expected additive [20]: greater than additive response
- viability effect of PLK1 inhibitor combined with abiraterone, vs expected additive [21]: No greater than additive effect
- response to the combination of abiraterone and PLK1 inhibitor vs expected additive [22]: do not have a greater than additive response
- response to the combination of abiraterone and PLK1 inhibitor vs expected additive [23]: greater than additive response
- cell lines in which the more than additive effect was detected [24]: approximately 30%
- activity in proliferation assays [25]: low nanomolar activity

Structure (SMILES): C[C@]12CC[C@H](O)CC1=CC[C@@H]1[C@@H]2CC[C@]2(C)C(c3cccnc3)=CC[C@@H]12 [abiraterone]
- frequency of division not parallel to the growth surface [9]: increased
- spindle orientation / spindle rotation during mitosis [9]: disrupted proper spindle orientation
- effect on apoptotic cell death (cleaved Caspase-3 positive cells) after onvansertib (C4-2 CRPC cells): exacerbates subsequent apoptotic cell death
- effect on mitotic arrest (pHH3 positive cells) caused by PLK1 inhibitor onvansertib (C4-2 CRPC cells): dramatically increased the frequency of mitotic arrest; also recorded: enhances the mitotic arrest

Structure (SMILES): CC[C@@H]1C(=O)N(C)c2cnc(Nc3ccc(C(=O)N[C@H]4CC[C@H](N5CCN(CC6CC6)CC5)CC4)cc3OC)nc2N1C(C)C [BI6727, volasertib]
- MTD in combination with afatinib [26]: 300 mg
- inhibitory activity against a panel of >50 other kinases [27]: no inhibitory activity
- tumor cell killing of PLK inhibitor combined with abiraterone, vs expected additive [6]: more than additive
- growth of multiple human carcinoma xenografts [28]: significantly inhibits the growth
- recommended dose for further development ([29]; based on overall tolerability): 300 mg
- MTD ([29]; i.v. once every 3 weeks, advanced solid tumors): 400 mg
- DLTs ([29]; i.v. once every 3 weeks, dose escalation 12-450 mg): neutropenia, thrombocytopenia, and febrile neutropenia

Structure (SMILES): COc1ccc(S(=O)(=O)Nc2ccccc2/C=C/c2cc[n+]([O-])cc2)cc1 [HMN-176]
- enzymatic activity of PLK1 (PLK1; affects subcellular distribution of PLK1 instead): does not directly inhibit
- antitumor activity in mouse xenograft models (mouse xenograft models): potent antitumor activity
- cytotoxicity toward various human tumor cell lines [30]: potent cytotoxicity
